The assay has as its target T1, α4β7 (adhesion of RPMI cells to CS-1) (Homo sapiens, UniProt P13612+P26010).
T1 construct: endogenous in cells
T1 sequence (P13612 34-1032): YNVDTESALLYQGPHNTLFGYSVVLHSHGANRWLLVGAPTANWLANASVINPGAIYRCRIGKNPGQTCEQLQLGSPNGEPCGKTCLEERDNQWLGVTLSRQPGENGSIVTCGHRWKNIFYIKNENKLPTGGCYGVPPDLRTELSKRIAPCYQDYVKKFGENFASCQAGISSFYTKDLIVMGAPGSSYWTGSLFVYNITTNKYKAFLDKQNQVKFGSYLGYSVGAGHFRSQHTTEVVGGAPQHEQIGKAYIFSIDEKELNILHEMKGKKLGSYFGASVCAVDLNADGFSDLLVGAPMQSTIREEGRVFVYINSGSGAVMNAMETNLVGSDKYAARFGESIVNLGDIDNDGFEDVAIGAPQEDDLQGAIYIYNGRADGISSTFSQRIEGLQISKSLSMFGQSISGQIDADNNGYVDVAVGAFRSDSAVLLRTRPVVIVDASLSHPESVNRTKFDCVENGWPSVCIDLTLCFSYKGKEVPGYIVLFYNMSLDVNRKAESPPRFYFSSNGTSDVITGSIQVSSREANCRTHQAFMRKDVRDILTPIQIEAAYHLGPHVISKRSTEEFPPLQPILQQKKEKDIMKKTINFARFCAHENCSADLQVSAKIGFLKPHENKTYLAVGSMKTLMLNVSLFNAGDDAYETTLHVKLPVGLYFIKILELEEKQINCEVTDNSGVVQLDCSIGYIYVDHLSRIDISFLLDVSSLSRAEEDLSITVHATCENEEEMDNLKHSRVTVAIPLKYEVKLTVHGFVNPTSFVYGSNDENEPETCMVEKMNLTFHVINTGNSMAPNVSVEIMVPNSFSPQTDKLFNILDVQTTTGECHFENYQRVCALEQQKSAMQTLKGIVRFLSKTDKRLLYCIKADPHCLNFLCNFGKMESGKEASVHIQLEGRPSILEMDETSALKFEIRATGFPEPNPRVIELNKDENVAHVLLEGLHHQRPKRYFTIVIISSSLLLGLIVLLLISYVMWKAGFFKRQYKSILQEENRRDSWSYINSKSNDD
T1 sequence (P26010 20-798): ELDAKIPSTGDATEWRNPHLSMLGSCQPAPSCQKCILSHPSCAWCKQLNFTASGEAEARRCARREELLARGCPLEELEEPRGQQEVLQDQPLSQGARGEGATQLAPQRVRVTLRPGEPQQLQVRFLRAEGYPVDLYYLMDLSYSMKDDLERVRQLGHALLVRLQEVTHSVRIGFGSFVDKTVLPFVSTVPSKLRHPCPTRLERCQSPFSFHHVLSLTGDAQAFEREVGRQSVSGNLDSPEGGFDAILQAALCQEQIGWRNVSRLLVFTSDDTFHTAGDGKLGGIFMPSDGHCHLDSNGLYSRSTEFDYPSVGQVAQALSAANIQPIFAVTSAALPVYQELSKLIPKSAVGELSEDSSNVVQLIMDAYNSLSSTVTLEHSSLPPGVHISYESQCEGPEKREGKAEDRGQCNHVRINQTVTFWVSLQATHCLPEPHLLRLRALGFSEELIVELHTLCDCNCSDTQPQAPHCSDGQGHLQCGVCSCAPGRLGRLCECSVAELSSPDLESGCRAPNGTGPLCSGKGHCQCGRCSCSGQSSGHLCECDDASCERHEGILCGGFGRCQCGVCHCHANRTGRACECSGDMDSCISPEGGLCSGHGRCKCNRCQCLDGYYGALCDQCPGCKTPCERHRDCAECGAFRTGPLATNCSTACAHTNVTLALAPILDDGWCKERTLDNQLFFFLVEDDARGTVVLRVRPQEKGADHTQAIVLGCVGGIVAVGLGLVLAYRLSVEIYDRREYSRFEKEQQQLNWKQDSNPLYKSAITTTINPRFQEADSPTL
The assay can be described thus: RPMI-CS-1 cell adhesion assay. The format is cell-based. Particulars: adhesion of RPMI B-cell line (expresses α4β7) to CS-1 peptide coated microwells; read-out: RPMI-CS-1 IC50 value range.
For `COc1ccccc1-c1ccc(C[C@H](NC(=O)c2ccc(NS(=O)(=O)c3ccc(C)cc3)cc2Cl)C(=O)O)cc1` [Example 188, N-[2-Chloro-4-(tosylamino)benzoyl]-4-(2-methoxyphenyl)-L-phenylalanine], the IC50 is less than 0.3 µM.

`CCCN1CCN(Cc2cc(OC)c(-c3ccc(C[C@H](NC(=O)c4c(Cl)cccc4Cl)C(=O)O)cc3)c(OC)c2)CC1` [Example 252]: the IC50 was less than 0.3 µM. For `COc1cc(OCc2c(Cl)cccc2Cl)cc(OC)c1-c1ccc(C[C@H](NC(=O)c2c(Cl)cccc2Cl)C(=O)O)cc1` [Example 221, N-(2,6-Dichlorobenzoyl)-4-[2,6-dimethoxy-4-[(2,6-dichlorophenyl)methoxy]phenyl]-L-phenylalanine], the IC50 lay within 1 to 5 µM.

In the case of `Cc1ncc(COc2ccccc2-c2ccc(C[C@H](NC(=O)c3c(Cl)cccc3Cl)C(=O)O)cc2)s1` [Example 42], the IC50 was 0.3 to 1 µM. In the case of `COc1cccc(OC)c1-c1ccc(C[C@H](NC(=O)c2c(Cl)cccc2Cl)c2nnn[nH]2)cc1` [Example 270, (1S)-N-(2,6-Dichlorobenzoyl)-2-[4-(2,6-dimethoxyphenyl)phenyl]-1-(1H-tetrazol-5-yl) ethylamine], the IC50 was less than 0.3 µM.

For the molecule `COc1cccc(OC)c1-c1ccc(C[C@H](NC(=O)c2cccc(C)c2)C(=O)O)cc1` [Example 281], the half-inhibitory concentration (IC50) lay within 1 to 5 µM. `COc1cccc(OC)c1-c1ccc(C[C@H](NC(=O)c2c(Cl)cc(-c3cccs3)cc2Cl)C(=O)O)cc1` [Example 316]: the IC50 is less than 0.3 µM. In the case of `COc1ccccc1-c1ccc(C[C@H](NC(=O)c2ccc(NC(=S)NC(C)C)cc2Cl)C(=O)O)cc1` [Example 195] it was 0.3 to 1 µM; in that of `CNC(=O)c1ccccc1-c1ccc(C[C@H](NC(=O)c2c(Cl)cccc2Cl)C(=O)O)cc1` [Example 54, N-(2,6-Dichlorobenzoyl)-4-[2-(N-methylcarbamoyl)phenyl]-L-phenylalanine], 0.3 to 1 µM; in that of `COc1cc(CN2CC(C)OC(C)C2)cc(OC)c1-c1ccc(C[C@H](NC(=O)c2c(Cl)cccc2Cl)C(=O)O)cc1` (stereo partly shown) [Example 245], less than 0.3 µM. The value for `COc1cccc(-c2ccc(C[C@H](NC(=O)c3c(Cl)cccc3Cl)C(=O)O)cc2)c1` [Example 119] was more than 5 µM; that for `CNS(=O)(=O)c1ccccc1-c1ccc(C[C@H](NC(=O)c2c(Cl)cccc2Cl)C(=O)O)cc1` [Example 20, N-(2,6-Dichlorobenzoyl)-4-[2-(N-methylsulfamoyl)phenyl]-L-phenylalanine] was less than 0.3 µM; that for `O=C(O)C=Cc1ccccc1-c1ccc(C[C@H](NC(=O)c2c(Cl)cccc2Cl)C(=O)O)cc1` (mixture of isomers) [Example 49, N-(2,6-Dichlorobenzoyl)-4-[2-(2-carboxyethenyl)phenyl]-L-phenylalanine] was 0.3 to 1 µM. In the case of `NS(=O)(=O)c1ccccc1-c1ccc(C[C@H](NC(=O)c2c(Cl)cccc2Cl)C(=O)O)cc1` [Example 17, N-(2,6-Dichlorobenzoyl)-4-(2-sulfamoylphenyl)-L-phenylalanine] it was less than 0.3 µM; in that of `COc1ccccc1-c1ccc(C[C@H](NC(=O)[C@@H](C)c2ccccc2)C(=O)O)cc1` [Example 2, N-[(S)-2-Phenylpropionyl]-4-(2-methoxyphenyl)-L-phenylalanine], 1 to 5 µM.

With `COc1cc(CN(C)C)cc(OC)c1-c1ccc(C[C@H](NC(=O)c2c(Cl)cccc2Cl)C(=O)O)cc1` [Example 255, N-(2,6-Dichlorobenzoyl)-4-[2,6-dimethoxy-4-[(N,N-dimethylamino)methyl]phenyl]-L-phenylalanine], the IC50 is less than 0.3 µM. In the case of `COc1cccc(OC)c1-c1ccc(C[C@H](NC(=O)c2cccc([N+](=O)[O-])c2)C(=O)O)cc1` [Example 284] it was 1 to 5 µM; in that of `CNC(=S)Nc1ccc(C(=O)N[C@@H](Cc2ccc(-c3ccccc3OC)cc2)C(=O)O)c(Cl)c1` [Example 70, N-[2-Chloro-4-(3-methylthioureido)benzoyl]-4-(2-methoxyphenyl)-L-phenylalanine], less than 0.3 µM.

As to `COc1cccc(OC(C)C)c1-c1ccc(C[C@H](NC(=O)c2c(Cl)cccc2Cl)C(=O)O)cc1` [Example 226, N-(2,6-Dichlorobenzoyl)-4-(2-i-propyloxy-6-methoxyphenyl)-L-phenylalanine], the IC50 is less than 0.3 µM.

Turning to `COc1cccc(OC)c1-c1ccc(C[C@H](NC(=O)c2cccc(C#N)c2)C(=O)O)cc1` [Example 282], the 50% inhibitory concentration (IC50) is 1 to 5 µM. The value for `CC(=O)NS(=O)(=O)c1ccccc1-c1ccc(C[C@H](NC(=O)c2c(Cl)cccc2Cl)C(=O)O)cc1` [Example 19, N-(2,6-Dichlorobenzoyl)-4-[2-(N-acetylsulfamoyl)phenyl]-L-phenylalanine] was 1 to 5 µM.

On to `COc1cc(CN2CCN(C(C)=O)CC2)cc(OC)c1-c1ccc(C[C@H](NC(=O)c2c(Cl)cccc2Cl)C(=O)O)cc1` [Example 251], for which the IC50 was less than 0.3 µM. For `COc1ccccc1-c1ccc(C[C@H](NC(=O)c2c(Cl)cccc2Cl)C(=O)O)cc1C(C)O` (stereo partly drawn) [Example 73, N-(2,6-Dichlorobenzoyl)-3-(1-hydroxyethyl)-4-(2-methoxyphenyl)-L-phenylalanine], the IC50 was less than 0.3 µM. Consider `O=C(NS(=O)(=O)c1ccccc1-c1ccc(C[C@H](NC(=O)c2c(Cl)cccc2Cl)C(=O)O)cc1)c1ccccc1` [Example 18, N-(2,6-Dichlorobenzoyl)-4-[2-(N-benzoylsulfamoyl)phenyl]-L-phenylalanine], for which the IC50 was 0.3 to 1 µM. The value for `COc1ccccc1-c1ccc(C[C@@H](NC(=O)c2cccc(NS(=O)(=O)C(F)(F)F)c2Cl)C(=O)O)cc1` [Example 186, N-[2-Chloro-3-[(trifluoromethanesulfonyl)amino]-benzoyl]-4-(2-methoxyphenyl)-D-phenylalanine] was 0.3 to 1 µM; that for `COc1ccccc1-c1ccc(C[C@H](NC(=O)c2ccc(C)nc2Cl)C(=O)O)cc1` [Example 94] was 1 to 5 µM; that for `CN(C)CCOc1ccc2c(c1-c1ccc(C[C@H](NC(=O)c3c(Cl)cccc3Cl)C(=O)O)cc1)OCO2` [Example 234, N-(2,6-Dichlorobenzoyl)-4-[2,3-methylenedioxy-6-[2-(N,N-dimethylamino)ethoxy]phenyl]-L-phenylalanine] was less than 0.3 µM. On to `COc1ccccc1-c1ccc(C[C@H](NC(=O)c2c(Cl)cc(NS(=O)(=O)C(F)(F)F)cc2Cl)C(=O)O)cc1` [Example 182, N-[2,6-Dichloro-4-[(trifluoromethanesulfonyl)amino]benzoyl]-4-(2-methoxyphenyl)-L-phenylalanine], for which the IC50 was less than 0.3 µM. As for `O=C(NCCN1CCOCC1)c1ccccc1-c1ccc(C[C@H](NC(=O)c2c(Cl)cccc2Cl)C(=O)O)cc1` [Example 59, N-(2,6-Dichlorobenzoyl)-4-[2-[N-(2-morpholinoethyl)carbamoyl]phenyl]-L-phenylalanine], the IC50 lay in the range of 1 to 5 µM. In the case of `COc1cc(CN2CCS(=O)(=O)CC2)cc(OC)c1-c1ccc(C[C@H](NC(=O)c2c(Cl)cccc2Cl)C(=O)O)cc1` [Example 263A, N-(2,6-dichlorobenzoyl)-4-[2,6-dimethoxy-4-(thiomorpholinomethyl)phenyl]-L-phenylalanine S,S-dioxide] it was less than 0.3 µM. The value for `C[S+]([O-])c1ccccc1-c1ccc(C[C@H](NC(=O)c2c(Cl)cccc2Cl)C(=O)O)cc1` (single isomer, unassigned) [Example 152C, N-(2,6-dichloro-benzoyl)-4-[2-(methylsulfinyl)phenyl]-L-phenylalanine] was 0.3 to 1 µM.

The record behind these values is patent US6855843B2, “Inhibitors of α4 mediated cell adhesion” (Tanabe Seiyaku Co., Ltd., priority 1998, dated 2005).
